From patent US12352767B2, “Method of treating cognitive decline associated with neurological diseases based on a decrease in FLT4 expression or activity” (University of Virginia Patent Foundation, priority 2018, dated 2025) come the findings set out here.

Assay [1] deals with meningeal lymphatic vessels. Nature of the assay: Meningeal whole-mount immunostaining (LYVE-1/CD31): lymphatic vessel area and diameter, blood vessel coverage. On the procedure: Selective ablation of the meningeal lymphatic vessels was achieved by i.c.m. injection and transcranial photoconversion of Visudyne® (verteporfin for injection, Valeant Ophtalmics). Visudyne was reconstituted following manufacturer instructions and 5 μL was injected i.c.m. following the previously described procedure. […] Each spot was irradiated with a light dose of 50 J/cm^2 at an intensity of 600 mW/cm^2 for a total of 83 s. Controls were injected with the same volume of Visudyne (without the photoconversion step) or sterile saline plus photoconversion (vehicle/photoconversion). The scalp skin was then sutured, the mice were subcutaneously injected with ketoprofen (2 mg/Kg) and allowed to recover on a heating pad until fully awake.
A hydrogel of 1.4% hyaluronic acid and 3% methylcellulose alone (vehicle) or with 200 ng/mL of encapsulated human VEGF-C (PeproTech) or VEGF-C156S (R&D Systems) was prepared as described elsewhere^49. Briefly, lyophilized, sterile methylcellulose (4000 cP, Sigma-Aldrich) and sterile hyaluronic acid (1500-1800 kDa, Sigma-Aldrich) were sequentially dissolved in sterile 0.1 M phosphate buffered saline (PBS) at 4° C. overnight. Lyophilized VEGF-C or VEGF-C156S were resuspended as particulate at 2000 ng/mL in 0.5% sterile methylcellulose in PBS. The particulate solution, or vehicle 0.5% methylcellulose, was mixed into the hydrogel pre-solution at 1:10, and loaded into a syringe for gelation at 37° C. […] The hydrogels were prepared on the day of the experiment and kept warm inside the individual syringes until applied onto the mouse's skull. […] An incision was made in the scalp skin and the skull was thinned at the junction of all sinuses and above the transverse sinus. The shear-thinning properties of the polymers allowed the extrusion of 100 μL of each hydrogel solution from the syringe into the thinned skull surface. The scalp skin was then sutured on top of the solidified hydrogel, the mice were subcutaneously injected with ketoprofen (2 mg/Kg) and allowed to recover on a heating pad until fully awake.
Mice were given a lethal dose of anesthetics by intraperitoneal (i.p.) injection of Euthasol (10% v/v in saline). When needed, CSF was collected from the cisterna magna using a 0.5 mm diameter borosilicate glass pipette with internal filament and immediately stored at −80° C. Mice were then transcardially perfused with ice cold PBS with heparin (10 U/mL). Deep cervical lymph nodes were dissected and drop fixed in 4% paraformaldehyde (PFA) for 12 hours at 4° C. After stripping the skin and muscle from the bone the head was collected and drop fixed in 4% PFA. […] The brains were kept in 4% PFA for additional 24 hours (48 hours in total). […]

The test system of assay [2] is brain hippocampus and cortex. Nature of the assay: T1-weighted MRI of brain influx of i.c.m. gadolinium, Lymph4D analysis. Format: in vivo, mice. The text has this:
Measurement of gadolinium influx rate and modeling of tracer advection-diffusion within the brain were achieved using Lymph4D, a software developed in-house and available for revision purposes on the following link on the world wide web: viva-lab.ece.virginia.edu/lymph4d. To allow for a direct comparison between the different conditions, the MRI stacks Si(x, y, z, t) of the imaged mice (4 vehicle and 4 Visudyne) were aligned to a Visudyne stack V1(x, y, z, t), chosen as reference. Before proceeding with the automated registration in the (x, y) plane, the stacks were manually aligned along the z (sagittal) direction, to ensure the correspondence between (x, y) (transversal plane) slices, and cropped both in the z and t (time) direction, to ensure that each set of coordinates (x, y, z, t) contained meaningful data. To optimize the slice alignment in the (x, y) plane, scale pyramids (Adelson, E. H., Anderson, C. H., Bergen, J. R., Burt, P. J. & Ogden, J. M. Pyramid methods in image processing. RCA engineer 29, 33-41, (1984).) (3 levels deep) were computed for both the image to be registered and the reference. Starting from the coarser scale, the optimal non-reflective transformation matrix (restricted to translation, rotation, and scaling) was evaluated by using an iterative process based on the steep gradient descent method with a mean square error (MSE) cost function. After reaching algorithm convergence at the largest scale, or the maximum number of allowed iterations, the alignment was refined using progressively finer scales. A linear interpolation mapping was then used to reconstruct the image registered using the optimized transformation matrix. The following alignment strategy was used. Given a stack Si to be aligned to V1, for every slice zj(t)=Si(x, y, zj, t) at a given location in the sagittal direction (z=zj), the optimal transformation matrix was evaluated at every available time (t) and the quality (MSE) of the resulting alignment measured. […] Also, after the alignment, contrast measurement, providing the difference between the maximum and the minimum values observed along the temporal direction during the experiment duration (variability in tracer signal intensity over time), was evaluated for a given (x, y, z) location in the S; stack using: […]
The model was discretized using the forward-time central-space (FTCS) finite difference method (Ferziger, J. H. & Perić, M. Finite Difference Methods. In: Computational Methods for Fluid Dynamics. 3rd edition, 39-69, Springer, Berlin, Heidelberg, (2002).) after the following assumptions. The concentration (x, t) was considered proportional to the measured MRI signal intensity. […]

Entries after “also recorded” stand apart in the source; their conditions may differ.

verteporfin [Visudyne]: in assay [1] (Visudyne 5 μL i.c.m. + transcranial photoconversion, adult mice), the “ablation of meningeal lymphatics (LYVE-1+ lymphatic vessels)” value is given as “loss of meningeal vessel staining; also recorded: effective ablation of meningeal lymphatics”. Besides, in assay [1] (Visudyne i.c.m. + transcranial photoconversion), the “duration of meningeal lymphatic ablation” value was “at least 7 days”. Besides, the “Gd signal gain in hippocampus and cortex” value in assay [2] (7 days after Visudyne/photoconversion, Gd 25 mM i.c.m., 16 MRI sequences (~52 min), vs vehicle) was “significantly lower”. Moreover, the “contrast in Gd signal intensity in the ventricles” value in assay [2] (Visudyne-treated mice, over ~52 min) is on record as “higher contrast in signal intensity”. The “isotropic diffusion coefficient of Gd in the brain” value in assay [2] (after meningeal lymphatic ablation with Visudyne, advection-diffusion model in Lymph4D) is listed as “lower coefficient values”. In addition, the “Gd signal intensity gain (relative to sequence 1) in the brain cortex” value in assay [2] (one week after Visudyne/photoconversion, Gd 25 mM i.c.m., vs vehicle/photoconversion) is reported as “significant decrease”.
